# Results taken from US20110065749A1, “METHOD AND PHARMACEUTICAL COMPOSITION FOR TREATMENT OF MENTAL DISORDERS” (ACTIVE CO. LTD., priority 2008, published 2011).
# Counter-ions that a name gives are not always drawn.
# What was measured:
# [1] = system: Withdrawal Symptoms; assay: Case 13: withdrawal symptoms on reducing other drugs; type: in vivo, human
# Method: Case 13: Withdrawal Symptoms A office worker had been on 10 mg Paxil®, 2 mg Rohypnol® and 2 mg Depas® before sleeping. Although they had tried to reduce the doses of the drugs, emergence of withdrawal syndrome had hampered the reduction of the drugs. They started to take Cephadol®, 25 mg after dinner and 50 mg before sleeping. It made them able to be free from the other drugs in two weeks.
# [2] = system: Panic Disorder and Multiple Personality Disorder; assay: Case 10: panic disorder and multiple personality disorder patient; type: in vivo, human
# Source text: Case 10: Panic Disorder and Multiple Personality Disorder
# Patient was a single person, who had been treated at several psychiatric hospitals. […] They report that the medicine is best to calm their mind, and easier to take than any other drugs that they have ever taken.
# [3] = system: depression; assay: Case 9: depressed symptoms patient, HAMD; type: in vivo, human; details: 75 mg/day
# Source text: For evaluation of the state of depression, for example, Hamilton's rating scale for depression (HAMD) is available. The HAMD was developed by Max Hamilton in 1960 for the purpose of measuring the severity of a patient diagnosed with depression (Hamilton, M., Journal of Neurology, Neurosurgery & Psychiatry, 23-56-62 (1960) and Hamilton, M., “Development of rating scale for primary depressive illness”, British Journal of Social and Clinical Psychology, 6: 278-296 (1967)). In view of its high usefulness, it is a representative scale of evaluation for depression, widely used in clinical researches and practices. The 17 item version is used for clinical trials of antidepressants in Japan, whereas the 21 item version and the 24 item version are used in Europe or other countries.
# When the severity is calculated using Hamilton's rating scale for depression (HAMD), each item is evaluated with three grades of 0-2, or five grades of 0-4. For example, the case is diagnosed as severe where the point is 20 or higher and, as the point decreases, the symptom is diagnosed as being improved.
# Case 9: Depressed Symptoms
# Administration to the patient of 75 mg/day Cephadol® reduced the HAMD score from 20 points to 7 points after 3 days.
# [4] = system: Refractory Depression; assay: Case 2: refractory depression patient, HAMD; type: in vivo, human
# Source text: For evaluation of the state of depression, for example, Hamilton's rating scale for depression (HAMD) is available. The HAMD was developed by Max Hamilton in 1960 for the purpose of measuring the severity of a patient diagnosed with depression (Hamilton, M., Journal of Neurology, Neurosurgery & Psychiatry, 23-56-62 (1960) and Hamilton, M., “Development of rating scale for primary depressive illness”, British Journal of Social and Clinical Psychology, 6: 278-296 (1967)). In view of its high usefulness, it is a representative scale of evaluation for depression, widely used in clinical researches and practices. The 17 item version is used for clinical trials of antidepressants in Japan, whereas the 21 item version and the 24 item version are used in Europe or other countries. When the severity is calculated using Hamilton's rating scale for depression (HAMD), each item is evaluated with three grades of 0-2, or five grades of 0-4. For example, the case is diagnosed as severe where the point is 20 or higher and, as the point decreases, the symptom is diagnosed as being improved. Case 2: Refractory Depression Patient was a person, who was unresponsive to any combination of SSRIs, SNRIs, tricyclic antidepressants, and antianxiety agents in their respective maximum doses. The score of HAMD was 23 points. […] Increasing the dose of Cephadol® to 150 mg/day improved the score of HAMD to 3 points. The improvement lasted even after other antidepressants were removed. Even 3 months later, the score of HAMD was still 3 points. When the dose of Cephadol® was reduced to 75 mg/day, the score of HAMD became 13 points after one week.
# [5] = system: Fibromyalgia; assay: Case 17: fibromyalgia (3) patient; type: in vivo, human
# Source text: […] Being unresponsive to prescribed medicines, they were instructed to do gentle stretching exercise and massage, as well as thermotherapy on affected areas. However, their arthralgia was so terrible that they could not perform stretching exercise or other directions. They had pain at all the 18 tender points of the whole body, a jaw abnormality, and a strong pain at both knee joints, which made their unable to go to hospital on foot.
# [6] = system: nystagmus by experimental disorder of balance function; details: rabbit experiments; cited from earlier work
# [7] = system: Bulimia; assay: Case 8: bulimia (2) patient; type: in vivo, human; details: 150 mg/day
# Source text: Patient was a person, who had been suffering from bulimia. The bulimia persisted even after their marriage and childbearing.
# [8] = system: Behavioral and Psychological Symptoms of Dementia; assay: Case 5: behavioral and psychological symptoms of dementia; type: in vivo, human; details: 100 mg/day
# Source text: Case 5: Effect on Behavioral and Psychological Symptoms of Dementia Patient was a person with dementia, who was irritable and easily excited, and had persecutory delusion.
# [9] = system: Fibromyalgia; assay: Case 18: fibromyalgia (4) patient; type: in vivo, human
# Source text: Case 18: Fibromyalgia (4)
# A person (housewife) is a patient with depression, having received regular medical treatment since seven years ago. […] However, a diagnosis with autoimmune disease or inflammatory disease was negative from their blood test. Due to back pain and fingertip pain, they were unable to make household work, and it was painful for them to hold even a light object by hand. They had pain at 15 points among the 18 tender points of the whole body, and was diagnosed with fibromyalgia. […] They had to stay in bed all day long, and such a condition lasted for the long term.
# [10] = system: vertebral artery; details: dog experiments; cited from earlier work
# [11] = system: manic state of bipolar I disorder; assay: Case 3: manic-depressive illness patient; type: in vivo, human
# Method: Case 3: Manic-Depressive Illness Patient was a person, who had continuously been in a manic state of bipolar I disorder for over one month. An antiepileptic drug, or 1,200 mg of Limas®, was ineffective. Antipsychotic drugs were not usable due to significant side effects. […] When they discontinued the administration of Cephadol®, the manic state appeared after 5 days.
# [12] = 25 mg after dinner and 50 mg before sleeping
compound,measurement,setting,value
"OC(CCCN1CCCCC1)(c1ccccc1)c1ccccc1 [Cephadol®, 1,1-diphenyl-4-piperidine-1-ylbuthan-1-ol monohydrochloride]",side effects,[1]; [12],no side effects
same,"time until free from the other drugs (Paxil, Rohypnol, Depas)",[1]; [12],two
same,outcome after tapering Cephadol,"[1]; dose reduced from 50 mg to 25 mg, and to 0 mg",discontinuation of all the drugs
same,panic disorder,"[2]; 75 mg/day for one week, then 150 mg/day",significant improvement of panic disorder
same,transformation of personality,"[2]; 150 mg/day, previously 5 to 10 times a month",improved
same,antianxiety effect,[2]; 75-150 mg/day,strong antianxiety effect
same,side effects,[3],There were side effects
same,HAMD score,"[3]; after 3 days, from 20 points",7 points
same,depressive symptom,"[4]; 75 mg/day, HAMD 23 points before",significant improvement
same,score of HAMD,"[4]; 150 mg/day, 3 months later, other antidepressants removed",3 points
same,side effects,[4]; 75-150 mg/day,no side effects
same,score of HAMD,"[4]; dose increased to 150 mg/day, 23 points before",3 points
same,score of HAMD,"[4]; dose reduced to 75 mg/day, after one week",13 points
same,pain at both knee joints,[5]; 75 mg/day,improved the pain at both knee joints
same,systemic pain,[5]; 75 mg/day,eliminated the systemic pain
same,mobility of large joints (objective),[5]; 125 mg/day,the mobility of large joints increased
same,pain at both knee joints,[5]; dosage increased to 125 mg/day,the pain at both knee joints also disappeared
same,pain at both knee joints,"[5]; dosage reduced to 75 mg/day, on the next day",recurrence of the pain at both knee joints
same,pain at both knee joints,"[5]; dose re-increased to 125 mg/day, on the next day",eliminated the pain at both knee joints
same,emergence of nystagmus by experimental disorder of balance function,[6],inhibited the emergence of nystagmus by experimental disorder of balance function
same,duration of the effect,[7],more than two
same,overeating,[7],stopped their overeating
same,side effects,[7]; more than two months,without any side effects
same,mental stability,[8],significantly improved mental stability
same,nuisance behaviors caused by the persecutory delusion,[8],prevented their nuisance behaviors to other people
same,side effects,[8],no side effects
same,malaise,[9]; 75 mg/day,significant improvement in malaise
same,mobility of large joints (objective),[9]; 125 mg/day,the mobility of large joints increased
same,back pain and fingertip pain,[9]; dose increased to 125 mg/day,improved the back pain and fingertip pain
same,blood flow of the vertebral artery,[10],increase the blood flow thereof
same,spasm of the vertebral artery,[10],remit the spasm of the vertebral artery
same,effect on the disease (manic state),[11]; 150 mg/day,significant amelioration of the disease
same,side effects,[11]; 150 mg/day,no side effects
same,time until the manic state appeared after discontinuation,[11]; after discontinuation of 150 mg/day,5 days
